Test results taken from patent US9624279B2, “Method for producing insoluble aggregate of neurodegenerative-disease-related protein” (TOKYO METROPOLITAN INSTITUTE OF MEDICAL SCIENCE, priority 2011, dated 2017).

Tested on: HA-TDP expressing cells
Assay: Suppression of insoluble TDP aggregate formation by candidate compounds (Western blot with anti-409/410 antibody, densitometer)
Type: cell-based, human
Conditions: 20 μM, ppt fraction after three days, compared with DMSO control as 100%; for suppressing effect against aggregate formation: added 6 hours after introduction of insoluble fraction from the brain of patient
Procedure: Two transfectants of (1) SH-SY5Y cells expressing human α-synuclein (hereinafter referred to as “αS expressing cells” for transfectants and “αS” for the human α-synuclein, respectively) and (2) SH-SY5Y cells expressing HA-tagged TAR DNA binding protein (hereinafter referred to as “HA-TDP expressing cells” for the SH-SY5Y cells and an “HA-TDP” HA-tagged TAR DNA binding protein, respectively) were prepared. In brief, a construct in which a polynucleotide encoding αS or HA-TDP was inserted into pcDNA3 vector were prepared (Ueda. K et al., Proc. Natl. Acad. Sci. U.S.A. 90: 11282 (1993), Ou. S H et al., J Virol. 3584: 394 (1995)). Mixture of the construct (1 μg), X-tremeGENE 9 DNA transfection reagent (Roche Diagnostics K.K.) (3 μL) and the OptiMEM (100 μL) was added to 30% to 50% confluent of the SH-SY5Y cells and incubated over night, then used in the following step of introduction of insoluble fraction.
An amount of sample for introduction per one well of the 6-well plate was added to the cell culture medium of one well, then the cultured cells was incubated for 6 hours. After the incubation, the medium was replaced with a flesh cell culture medium (2 mL) and the cultured cells were incubated for 3 days. Then, the cultured cells were used to perform the analysis by Western blotting and immunocytochemistry. If the cultured cells were not used immediately, the cultured cells were stored at −20° C.
The precipitate obtained in the preparation of TX fraction was suspended in a cell lysis buffer containing 1% N-sodium lauroyl sarcosinate, and incubated at 37° C. for 30 min. After ultrasonication treatment using VP-5S type device (Titech Corporation), the supernatant and precipitate were separated by ultracentrifugation (290,000×g, 20 min, 4° C.), the supernatant was used as Tris buffer soluble fraction containing N-sodium lauroyl sarcosinate (hereinafter referred to as “Sar fraction”). And also, the precipitate was used as insoluble fraction (hereinafter referred to as “ppt fraction”).
TS, TX, Sar and ppt fractions were used in the Western blotting by standard method well known to those skilled in the art. In brief, each fraction was separated by electrophoresis with 13.5% SDS-polyacrylamide gel, respectively. The separated proteins were transferred to a PVDF membrane, reacted with the following primary and secondary antibodies, and detected with an ECL Plus Western Blotting Detection System (GE Healthcare Japan Corporation) and an ImageQuant™ LAS 4000 mini (GE Healthcare Japan Corporation).
The harvest of samples, preparation of insoluble fractions from the brain samples, preparation of sample for introduction including the insoluble fractions, cell culturing, preparation of transfectants, introduction of insoluble fractions into the cultured cells and Western blotting were performed in accordance with the procedures similar to those in the example 3. In this example, the candidate compounds of therapeutic agent of neurodegenerative disease were added at final concentration of 20 μM at 6 hours after introduction of insoluble fraction originated from the brain of patient into HA-TDP expressing cells. […] In three days after the introduction of insoluble fraction from the brain of patient, the ppt fraction of HA-TDP expressing cells was recovered and used in Western blotting, and the amounts of the insoluble fractions were quantified with a densitometer. […]

Row | SMILES | suppressing effect against aggregate formation | aggregate formation suppressed
1 | O=c1c(O)c(-c2ccc(O)c(O)c2)oc2c(O)c(O)cc(O)c12 [gossypetin] | had the suppressing effect | approximately 40%
2 | O=c1c(O)c(-c2cc(O)c(O)c(O)c2)oc2cc(O)cc(O)c12 [myricetin] | had the suppressing effect | –
3 | O=C(O[C@@H]1Cc2c(O)cc(O)cc2O[C@@H]1c1ccc(O)c(O)c1)c1cc(O)c(O)c(O)c1 [epicatechin gallate, (−)-epicatechin gallate] | had the suppressing effect | –
4 | O=C(c1cc(O)c(O)c(O)c1)c1ccc(O)c(O)c1O [exifone] | did not have a suppressing effect | –
